According to patent publication US20170022171A1, “2,5-DISUBSTITUTED CYCLOPENTANECARBOXYLIC ACIDS AND THEIR USE” (Bayer Pharma Aktiengesellschaft, priority 2014, published 2017):
pIC50: −log10 of the molar value.

Tests used:
Type in all cases: biochemical
MMP-16 = biological target: T1, MMP-16 (Homo sapiens, UniProt P51512); experiment: In vitro MMP-16 inhibition test
T1 construct: purchased R&D Systems 1785-MP
Excerpt: (§1) The MMP-mediated amidolytic cleavage of a suitable peptide substrate leads to an increase in fluorescent light here too. The signal intensity of the fluorescent light is directly proportional to the enzyme activity. The active concentration of a test compound at which half the enzyme is inhibited (50% signal intensity of the fluorescent light) is reported as the IC50 value.
Recombinant MMP-16 (from R&D Systems, 1785-MP) is enzymatically activated in accordance with the manufacturer's instructions using recombinant furin (from R&D Systems, 1503-SE). 1 μl of the test compound to be analysed (as a solution in DMSO, suitable concentrations e.g. 1 nM to 30 μM) is pipetted into 24 μl of activated enzyme (final concentration e.g. 1 nM) in reaction buffer (50 mM Tris/HCl pH 7.5, 10 mM CaCl2, 150 mM NaCl, 0.05% Brij®-35) in a white 384-hole microtiter plate (MTP). The enzymatic reaction is started by adding the intramolecularly quenched Mca-Lys-Pro-Leu-Gly-Leu-Dpa(Dnp)-Ala-Arg-NH2 substrate (final concentration, for example, 5 μM; R&D Systems, ES-010), so as to result in a total test volume of 50 The course of the MMP-16 reaction is measured by measuring the fluorescence intensity (excitation 320 nm, emission 410 nm) over a suitable period of time (for example over 120 min at a temperature of 32° C.).

MMP-14 = biological target: T2, MMP-14 (Homo sapiens, UniProt P50281); experiment: In vitro MMP-14 inhibition test
T2 construct: purchased R&D Systems 918-MP
Excerpt: as §1
Recombinant MMP-14 (from R&D Systems, 918-MP) is enzymatically activated in accordance with the manufacturer's instructions using recombinant furin (from R&D Systems, 1503-SE). 1 μl of the test compound to be analysed (as a solution in DMSO, suitable concentrations e.g. 1 nM to 30 μM) is pipetted into 24 μl of activated enzyme (final concentration e.g. 0.5 nM) in reaction buffer (50 mM Tris/HCl pH 7.5, 10 mM CaCl2, 150 mM NaCl, 0.05% Brij®-35) in a white 384-hole microtiter plate (MTP). The enzymatic reaction is started by adding the intramolecularly quenched Mca-Lys-Pro-Leu-Gly-Leu-Dpa(Dnp)-Ala-Arg-NH2 substrate (final concentration, for example, 5 μM; R&D Systems, ES-010), so as to result in a total test volume of 50 The course of the MMP-14 reaction is measured by measuring the fluorescence intensity (excitation 320 nm, emission 410 nm) over a suitable period of time (for example over 120 min at a temperature of 32° C.).

MMP-13 = biological target: T3, MMP-13 (Homo sapiens, UniProt P45452); experiment: In vitro MMP-13 inhibition test
T3 construct: purchased R&D Systems 511-MP
Excerpt: as §1
Recombinant MMP-13 (from R&D Systems, 511-MP) is chemically activated in accordance with the manufacturer's instructions using APMA. 1 μl of the test compound to be analysed (as a solution in DMSO, suitable concentrations, for example, 1 nM to 30 μM) is pipetted into 24 μl of activated enzyme (final concentration, for example, 0.1 nM) in reaction buffer (50 mM Tris/HCl pH 7.5, 10 mM CaCl2, 150 mM NaCl, 0.05% Brij®-35) in a white 384-hole microtiter plate (MTP). The enzymatic reaction is started by adding the intramolecularly quenched Mca-Pro-Leu-Gly-Leu-Dpa(Dnp)-Ala-Arg-NH2 substrate (final concentration, for example, 10 μM; R&D Systems, ES-001), so as to result in a total test volume of 50 The course of the MMP-13 reaction is measured by measuring the fluorescence intensity (excitation 320 nm, emission 410 nm) over a suitable period of time (for example over 120 min at a temperature of 32° C.).

T1 sequence (P51512 120-564 limits assumed): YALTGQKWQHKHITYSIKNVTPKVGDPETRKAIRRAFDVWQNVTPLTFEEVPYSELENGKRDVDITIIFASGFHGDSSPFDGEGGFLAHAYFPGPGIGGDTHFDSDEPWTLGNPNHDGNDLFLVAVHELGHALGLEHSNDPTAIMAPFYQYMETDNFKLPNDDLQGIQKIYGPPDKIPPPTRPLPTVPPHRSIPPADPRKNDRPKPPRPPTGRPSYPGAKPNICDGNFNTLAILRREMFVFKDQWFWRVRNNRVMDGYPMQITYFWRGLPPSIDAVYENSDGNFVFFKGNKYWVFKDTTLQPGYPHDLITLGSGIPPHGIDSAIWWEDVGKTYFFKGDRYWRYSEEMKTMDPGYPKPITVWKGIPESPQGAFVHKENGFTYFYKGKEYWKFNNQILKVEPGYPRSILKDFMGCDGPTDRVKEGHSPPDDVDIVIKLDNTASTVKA

Compound | pIC50 (MMP-16) | pIC50 (MMP-14) | pIC50 (MMP-13)
Cc1cccc(COc2ccc(C(=O)[C@@H]3CC[C@H](Cn4nnc5ccc(C(F)(F)F)cc5c4=O)[C@H]3C(=O)O)cc2)c1 (single isomer, unassigned) [Example 16, (+)-(1RS,2RS,5SR)-2-{4-[(3-Methylbenzyl)oxy]benzoyl}-5-{[4-oxo-6-(trifluoromethyl)-1,2,3-benzotriazin-3(4H)-yl]methyl}cyclopentanecarboxylic acid] | 5.77 | 6.49 | 6.00
CCCCCSc1ccc(C(=O)[C@H]2CC[C@@H](Cn3nnc4ccc(C(F)(F)F)cc4c3=O)[C@@H]2C(=O)O)cc1 (racemic) [Example 88, (+/−)-(1RS,2SR,5RS)-2-{[4-Oxo-6-(trifluoromethyl)-1,2,3-benzotriazin-3(4H)-yl]methyl}-5-[4-(pentylsulphanyl)benzoyl]cyclopentanecarboxylic acid] | 6.17 | 6.36 | 6.64
O=C(O)[C@@H]1[C@@H](Cn2nnc3ccc(C(F)(F)F)cc3c2=O)CC[C@H]1C(=O)c1ccc(OCc2ccc(Cl)cc2)cc1 (single isomer, unassigned) [Example 25, (+)-(1RS,2RS,5SR)-2-{4-[(4-Chlorobenzyl)oxy]benzoyl}-5-{[4-oxo-6-(trifluoromethyl)-1,2,3-benzotriazin-3(4H)-yl]methyl}cyclopentanecarboxylic acid] | 6.54 | 6.64 | 7.35
CCCCCCOc1ccc(C(=O)[C@@H]2CC[C@H](Cn3nnc4ccc(C(F)(F)F)cc4c3=O)[C@H]2C(=O)O)cc1 (single isomer, unassigned) [Example 58, (+)-(1RS,2RS,5SR)-2-[4-(Hexyloxy)benzoyl]-5-{[4-oxo-6-(trifluoromethyl)-1,2,3-benzotriazin-3(4H)-yl]methyl}cyclopentanecarboxylic acid] | 5.64 | 5.89 | 6.36
O=C(O)[C@@H]1[C@@H](Cn2nnc3ccc(C(F)(F)F)cc3c2=O)CC[C@H]1C(=O)c1ccc(OCCC2CCCC2)cc1 (single isomer, unassigned) [Example 55, (+)-(1RS,2RS,5SR)-2-[4-(2-Cyclopentylethoxy)benzoyl]-5-{[4-oxo-6-(trifluoromethyl)-1,2,3-benzotriazin-3(4H)-yl]methyl}cyclopentanecarboxylic acid] | 5.29 | 5.62 | 5.77
O=C(O)[C@H]1[C@H](Cn2nnc3ccc(C(F)(F)F)cc3c2=O)CC[C@@H]1C(=O)c1ccc(OCc2ccc(F)cc2)cc1 (racemic) [Example 12, (+/−)-(1RS,2RS,5SR)-2-{4-[(4-Fluorobenzyl)oxy]benzoyl}-5-{[4-oxo-6-(trifluoromethyl)-1,2,3-benzotriazin-3(4H)-yl]methyl}cyclopentanecarboxylic acid] | 7.07 | 7.11 | 7.41
O=C(O)[C@@H]1[C@@H](Cn2nnc3ccc(C(F)(F)F)cc3c2=O)CC[C@H]1C(=O)c1ccc(OCC2CCCC2)cc1 (single isomer, unassigned) [Example 44, (+)-(1RS,2RS,5SR)-2-[4-(Cyclopentylmethoxy)benzoyl]-5-{[4-oxo-6-(trifluoromethyl)-1,2,3-benzotriazin-3(4H)-yl]methyl}cyclopentanecarboxylic acid] | 7.00 | 7.06 | 7.24
COc1cccc(COc2ccc(C(=O)[C@@H]3CC[C@H](Cn4nnc5ccc(C)cc5c4=O)[C@H]3C(=O)O)cc2)c1 (single isomer, unassigned) [Example 107, (+)-(1RS,2RS,5SR)-2-{4-[(3-Methoxybenzyl)oxy]benzoyl}-5-[(6-methyl-4-oxo-1,2,3-benzotriazin-3(4H)-yl)methyl]cyclopentanecarboxylic acid] | 6.19 | 6.54 | 6.82
O=C(O)[C@@H]1[C@@H](Cn2nnc3ccc(C(F)(F)F)cc3c2=O)CC[C@H]1C(=O)c1ccc(OCc2ccc(F)cc2)cc1 (single isomer, unassigned) [Example 13, (+)-(1RS,2RS,5SR)-2-{4-[(4-Fluorobenzyl)oxy]benzoyl}-5-{[4-oxo-6-(trifluoromethyl)-1,2,3-benzotriazin-3(4H)-yl]methyl}cyclopentanecarboxylic acid] | 6.77 | 6.82 | 7.48
COc1cccc(COc2ccc(C(=O)[C@H]3CC[C@@H](Cn4nnc5ccc(C)cc5c4=O)[C@@H]3C(=O)O)cc2)c1 (racemic) [Example 106, (+/−)-(1RS,2RS,5SR)-2-{4-[(3-Methoxybenzyl)oxy]benzoyl}-5-[(6-methyl-4-oxo-1,2,3-benzotriazin-3(4H)-yl)methyl]cyclopentanecarboxylic acid] | 6.72 | 6.74 | 6.92
(+)-(1RS,2RS,5SR)-2-{4-[Cyclohexyl)methyl)sulphanyl]benzoyl}-5-{[4-oxo-6-(trifluoromethyl)-1,2,3-benzotriazin-3(4H)-yl]methyl}cyclopentanecarboxylic acid [Example 86] | 4.85 | 5.41 | 5.18
O=C(O)[C@@H]1[C@@H](Cn2nnc3ccc(C(F)(F)F)cc3c2=O)CC[C@H]1C(=O)c1ccc(OCc2cccc(C(F)(F)F)c2)cc1 (single isomer, unassigned) [Example 19, (+)-(1RS,2SR,5RS)-2-{[4-Oxo-6-(trifluoromethyl)-1,2,3-benzotriazin-3(4H)-yl]methyl}-5-(4-{[3-(trifluoromethyl)benzyl]oxy}benzoyl)cyclopentanecarboxylic acid] | 5.27 | 5.52 | 5.59
CCCCOc1ccc(C(=O)[C@@H]2CC[C@H](Cn3nnc4ccc(C(F)(F)F)cc4c3=O)[C@H]2C(=O)O)cc1 (single isomer, unassigned) [Example 67, (+)-(1RS,2RS,5SR)-2-(4-Butoxybenzoyl)-5-{[4-oxo-6-(trifluoromethyl)-1,2,3-benzotriazin-3(4H)-yl]methyl}cyclopentanecarboxylic acid] | 6.74 | 7.02 | 6.57
O=C(O)[C@@H]1[C@@H](Cn2nnc3ccc(C(F)(F)F)cc3c2=O)CC[C@H]1C(=O)c1ccc(OCc2cccc(N3CCOC3=O)c2)cc1 (single isomer, unassigned) [Example 35, (+)-(1RS,2RS,5SR)-2-(4-{[3-(2-Oxo-1,3-oxazolidin-3-yl)benzyl]oxy}benzoyl)-5-{[4-oxo-6-(trifluoromethyl)-1,2,3-benzotriazin-3(4H)-yl]methyl}cyclopentanecarboxylic acid] | 6.52 | 6.77 | 7.28
Cc1cccc(COc2ccc(C(=O)[C@H]3CC[C@@H](Cn4nnc5ccc(C(F)(F)F)cc5c4=O)[C@@H]3C(=O)O)cc2)c1 (racemic) [Example 15, (+/−)-(1RS,2RS,5SR)-2-{4-[(3-Methylbenzyl)oxy]benzoyl}-5-{[4-oxo-6-(trifluoromethyl)-1,2,3-benzotriazin-3(4H)-yl]methyl}cyclopentanecarboxylic acid] | 6.28 | 6.74 | 6.19
O=C(O)[C@H]1[C@H](Cn2nnc3ccc(C(F)(F)F)cc3c2=O)CC[C@@H]1C(=O)c1ccc(OCc2cccc(C(F)(F)F)c2)cc1 (racemic) [Example 18, (+/−)-(1RS,2SR,5RS)-2-{[4-Oxo-6-(trifluoromethyl)-1,2,3-benzotriazin-3(4H)-yl]methyl}-5-(4-{[3-(trifluoromethyl)benzyl]oxy}benzoyl)cyclopentanecarboxylic acid] | 5.40 | 6.00 | 5.85
